Measured values as given in ChEMBL document CHEMBL5550180, “Enhancing anti-cancer capacity: Novel class I/II HDAC inhibitors modulate EMT, cell cycle, and apoptosis pathways” (Bioorg Med Chem, 2024).
Active and inactive are the calls of the source. No cut-off for these calls is given here.

Experiments:
A549 [1] = test: Induction of apoptosis in human A549 cells assessed as increase in PARP level at 5 to 10 uM incubated for 48 hrs by Western blot analysis; assay type: functional, cell-based; settings: dose 5-10 µM
[2] = Toxicity in zebrafish embryo assessed as formation of scoliosis at 1 to 5 uM measured after 96 hrs post fertilization by microscopic analysis; parameters: species or system Danio rerio; settings: in vivo, dose 1-5 µM
[3] = Toxicity in zebrafish embryo assessed as hatching rate at 1 to 5 uM measured after 72 hrs post fertilization by microscopic analysis; parameters: species or system Danio rerio; settings: in vivo, dose 1-5 µM
HT-29 [4] = test: cells; assay type: functional, cell-based; settings: Homo sapiens, HT-29, 48 h
Description: Anticancer activity against human HT-29 cells assessed as inhibition of cell growth measured for 48 hrs by MTT assay

HT-29 [5] = test: Anticancer activity against human HT-29 cells cultured as 3D spheroids assessed as suppression of cell growth at 10 uM incubated for 48 hrs by celltiter-glo luminescent assay; assay type: functional, cell-based
HT-29 [6] = test: Inhibition of cell migration in human HT-29 cells at 1.25 uM measured at 48 hrs by wound healing assay (reference value: 73.2%); assay type: functional
A549 [7] = test: Induction of cell cycle arrest in human A549 cells assessed as accumulation at sub G1 at 5 to 10 uM incubated for 24 to 48 hrs by PI-staining based flow cytometric analysis; assay type: functional; settings: dose 5-10 µM, time 24-48 hrs
A549 [8] = test: Inhibition of cell migration in human A549 cells at 2.5 uM measured at 48 hrs by wound healing assay (reference value: 42.3%); values are per cent of control; settings: A549, 48 h
HT-29 [9] = test: Anticancer activity against human HT-29 cells assessed as viable cells by measuring green fluorescence intensity measured for 48 hrs by Calcein AM staining based fluorescent microscopic analysis; assay type: functional, cell-based; settings: dose 1-20 µM
A549 [10] = test: Inhibition of cell migration in human A549 cells at 2.5 uM measured at 24 hrs by wound healing assay (reference value: 68.4%); values are per cent of control; settings: A549, 24 h
HT-29 [11] = test: Inhibition of cell migration in human HT-29 cells at 1.25 uM measured immediately by wound healing assay (reference value: 100%); values are per cent of control
A549 [12] = test: Anticancer activity against human A549 cells assessed as suppression of cell viability at 10 uM incubated for 48 hrs by MTT assay; assay type: functional, cell-based
A549 [13] = test: cells; assay type: functional, cell-based; settings: Homo sapiens, A549, 48 h
Description: Anticancer activity against human A549 cells assessed as inhibition of cell growth measured for 48 hrs by MTT assay

A549 [14] = test: Inhibition of cell migration in human A549 cells at 2.5 uM measured immediately by wound healing assay (reference value: 100%); values are per cent of control
A549 [15] = test: Induction of cell cycle arrest in human A549 cells assessed as effect on p21 level at 5 to 10 uM incubated for 48 hrs by Western blot analysis; assay type: functional, cell-based; settings: dose 5-10 µM
[16] = target: T1, Histone deacetylase (Homo sapiens) (UniProt Q13547+O15379+Q9UBN7+Q92769+Q9UQL6+Q8WUI4+Q9BY41+Q96DB2+P56524+Q9UKV0+Q969S8); test: Inhibition of HDAC in human HT-29 cells incubated for 48 hrs by Western blot analysis; assay type: cell-based; settings: dose 0.1-10 µM
[17] = target: T1, Histone deacetylase (Homo sapiens); test: Inhibition of HDAC in human A549 cells incubated for 48 hrs by Western blot analysis; assay type: cell-based; settings: dose 0.1-10 µM
[18] = target: T1, Histone deacetylase (Homo sapiens); test: Inhibition of HDAC in human HT-29 cells assessed as increase in histone acetylation level at 2.5 to 5 uM incubated for 48 hrs by Western blot analysis; assay type: cell-based; settings: dose 2.5-5 µM
[19] = Toxicity in zebrafish embryo assessed as survival rate at 1 to 5 uM measured after 72 hrs post fertilization; parameters: species or system Danio rerio; settings: in vivo, dose 1-5 µM
HT-29 [20] = test: Anticancer activity against human HT-29 cells assessed as suppression of cell viability at 10 uM incubated for 48 hrs by MTT assay; assay type: functional, cell-based
A549 [21] = test: Induction of cell cycle arrest in human A549 cells assessed as effect on cyclin B1 level at 5 to 10 uM incubated for 48 hrs by Western blot analysis; assay type: functional, cell-based; settings: dose 5-10 µM
A549 [22] = test: Induction of apoptosis in human A549 cells assessed as increase in caspase 3 level at 5 to 10 uM incubated for 48 hrs by Western blot analysis; assay type: functional, cell-based; settings: dose 5-10 µM
A549 [23] = test: Anticancer activity against human A549 cells cultured as 3D spheroids assessed as suppression of cell growth at 10 uM incubated for 48 hrs by celltiter-glo luminescent assay; assay type: functional, cell-based
HT-29 [24] = test: Inhibition of cell migration in human HT-29 cells assessed as downregulation of vimentin level at 2.5 to 5 uM incubated for 48 hrs by Western blot analysis; assay type: functional, cell-based; settings: dose 2.5-5 µM
NCI-H1299 = test: Anticancer activity against human NCI-H1299 cells assessed as reduction in cell viability at 10 to 40 uM incubated for 48 hrs by MTT assay; assay type: functional, cell-based; settings: dose 10-40 µM
HT-29 [25] = test: Inhibition of cell migration in human HT-29 cells assessed as upregulation of E-cadherin level at 2.5 to 5 uM incubated for 48 hrs by Western blot analysis; assay type: functional, cell-based; settings: dose 2.5-5 µM
[26] = Toxicity in zebrafish embryo assessed as effect on body length at 1 to 5 uM measured after 96 hrs post fertilization by microscopic analysis; parameters: species or system Danio rerio; settings: in vivo, dose 1-5 µM
HT-29 [27] = test: Inhibition of cell migration in human HT-29 cells assessed as downregulation of slug level at 2.5 to 5 uM incubated for 48 hrs by Western blot analysis; assay type: functional, cell-based; settings: dose 2.5-5 µM
[28] = Toxicity in zebrafish embryo assessed as yolk sac edema at 1 to 5 uM measured after 96 hrs post fertilization by microscopic analysis; parameters: species or system Danio rerio; settings: in vivo, dose 1-5 µM
A549 [29] = test: Anticancer activity against human A549 cells assessed as viable cells by measuring green fluorescence intensity measured for 48 hrs by Calcein AM staining based fluorescent microscopic analysis; assay type: functional, cell-based; settings: dose 1-20 µM
HT-29 [30] = test: Inhibition of cell migration in human HT-29 cells at 1.25 uM measured at 24 hrs by wound healing assay (reference value: 85.7%); values are per cent of control; settings: HT-29, 24 h
A549 [31] = test: Inhibition of colony formation in human A549 cells at 250 to 500 nM measured for 10 days by crystal violet staining based analysis; assay type: functional, cell-based; settings: dose 250-500 nM, time 10.0 day
HT-29 [32] = test: Inhibition of colony formation in human HT-29 cells at 125 to 250 nM measured for 10 days by crystal violet staining based analysis; assay type: functional, cell-based; settings: dose 125-250 nM, time 10.0 day
A549 [33] = test: Induction of apoptosis in human A549 cells assessed as upregulation of p53 expression at 5 to 10 uM incubated for 48 hrs by Western blot analysis; assay type: functional, cell-based; settings: dose 5-10 µM
[34] = target: T1, Histone deacetylase (Homo sapiens); test: Inhibition of HDAC in human HT-29 cells assessed as increase in acetyl alpha-tubulin level at 2.5 to 5 uM incubated for 48 hrs by Western blot analysis; assay type: cell-based; settings: dose 2.5-5 µM

Nc1ccccc1NC(=O)c1ccc(Cc2cn(S(=O)(=O)c3ccccc3)c3ccccc23)cc1
Activity (A549 [1]): Active
Activity [2]: Non-Toxic
Activity [3]: 100%
IC50 (HT-29 [4]): 1.92 µM
Activity (HT-29 [5]): Active
inhibition at 1.25 µM (HT-29 [6]): 82.1%
Activity (A549 [7]): Active
wound area remaining at 2.5 µM (A549 [8]): 53.6%
Activity (HT-29 [9]): Dose-Dependent Effect
wound area remaining at 2.5 µM (A549 [10]): 75.8%
wound area remaining at 1.25 µM (HT-29 [11]): 100%
Activity (A549 [12]): Active
IC50 (A549 [13]): 4.86 µM
wound area remaining at 2.5 µM (A549 [14]): 100%
Activity (A549 [15]): Active
inhibition [16]: Active
inhibition [17]: Active
inhibition [18]: Active
survival at 72 h, up to 5 µM [19]: ~100%
Activity (HT-29 [20]): Active
Activity (A549 [21]): Active
Activity (A549 [22]): Active
Activity (A549 [23]): Active
inhibition (HT-29 [24]): Active
Activity (NCI-H1299): Active
inhibition (HT-29 [25]): Active
Activity [26]: Non-Toxic
inhibition (HT-29 [27]): Active
Activity [28]: Non-Toxic
Activity (A549 [29]): Dose-Dependent Effect
wound area remaining at 1.25 µM (HT-29 [30]): 89.6%
inhibition (A549 [31]): Active
inhibition (HT-29 [32]): Active
Activity (A549 [33]): Active
inhibition [34]: Active
